Laboratory results as given in the supplement of paper PMC10307832.

Columns and labels:
Assay in all cases: relative viability (nuclei count vs DMSO), 5 days (fraction); higher = more cells survive
Lapatinib + Vorinostat = compound: CS(=O)(=O)CCNCc1ccc(-c2ccc3ncnc(Nc4ccc(OCc5cccc(F)c5)c(Cl)c4)c3c2)o1 [Lapatinib] + O=C(CCCCCCC(=O)Nc1ccccc1)NO [Vorinostat] (partner 1 µM)
Summary of the method: (§1)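 Five library-drug doses in √10 steps were combined with a fixed anchor-drug dose, or a single drug was given alone, by pin tool to lung cancer cell lines in 1536-well plates the day after seeding. Nuclei were stained and counted after 5 days. Relative viability is the nuclei count in treated wells over that in vehicle wells, taken as the median of duplicate plates.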

Wnt-C59 + Luminespib = compound: CC1=NC=CC(=C1)C2=CC=C(C=C2)CC(=O)NC3=CC=C(C=C3)C4=CN=CC=C4 [Wnt-C59] + CCNC(=O)c1noc(-c2cc(C(C)C)c(O)cc2O)c1-c1ccc(CN2CCOCC2)cc1 [Luminespib] (partner 0.01 µM)
Summary of the method: as §1

Wnt-C59 + Decitabine = compound: CC1=NC=CC(=C1)C2=CC=C(C=C2)CC(=O)NC3=CC=C(C=C3)C4=CN=CC=C4 [Wnt-C59] + Nc1ncn([C@H]2C[C@H](O)[C@@H](CO)O2)c(=O)n1 [Decitabine] (partner 2 µM)
Summary of the method: as §1

Wnt-C59 + Foretinib = compound: CC1=NC=CC(=C1)C2=CC=C(C=C2)CC(=O)NC3=CC=C(C=C3)C4=CN=CC=C4 [Wnt-C59] + COc1cc2c(Oc3ccc(NC(=O)C4(C(=O)Nc5ccc(F)cc5)CC4)cc3F)ccnc2cc1OCCCN1CCOCC1 [Foretinib] (partner 0.25 µM)
Summary of the method: as §1

UMC-11
relative viability (Lapatinib + Vorinostat; first compound 0.02 µM): 0.42 | relative viability (Lapatinib + Vorinostat; first compound 0.06325 µM): 0.384 | relative viability (Lapatinib + Vorinostat; first compound 0.2 µM): 0.39 | relative viability (Lapatinib + Vorinostat; first compound 0.6325 µM): 0.367 | relative viability (Lapatinib + Vorinostat; first compound 2 µM): 0.321 | relative viability (Wnt-C59 + Luminespib; first compound 0.001 µM): 0.932 | relative viability (Wnt-C59 + Luminespib; first compound 0.01 µM): 1.1 | relative viability (Wnt-C59 + Luminespib; first compound 0.03162 µM): 1.19 | relative viability (Wnt-C59 + Luminespib; first compound 0.1 µM): 0.979 | relative viability (Wnt-C59 + Decitabine; first compound 0.001 µM): 0.572 | relative viability (Wnt-C59 + Decitabine; first compound 0.01 µM): 0.607 | relative viability (Wnt-C59 + Decitabine; first compound 0.03162 µM): 0.559 | relative viability (Wnt-C59 + Decitabine; first compound 0.1 µM): 0.72 | relative viability (Wnt-C59 + Foretinib; first compound 0.001 µM): 1.04 | relative viability (Wnt-C59 + Foretinib; first compound 0.01 µM): 1.01 | relative viability (Wnt-C59 + Foretinib; first compound 0.03162 µM): 1.06 | relative viability (Wnt-C59 + Foretinib; first compound 0.1 µM): 0.996
